Measured values as given in PMC9139979, “Features of ZED1227: The First-In-Class Tissue Transglutaminase Inhibitor Undergoing Clinical Evaluation for the Treatment of Celiac Disease” (Cells, 2022).
Entries after “also recorded” stand apart in the source; their conditions may differ.

Experiments:
[1] = Caco-2 cell permeability assay (CacoReady); assay type: in vitro ADME; conditions: human, apical 200 μM, HBSS pH 6.5, 1% DMSO
Description: The permeability coefficient (Papp value) was obtained from Caco-2 monolayer studies predicting oral/intestinal bioavailability of the tested compound. The assay was performed using CacoReady^TM ready-to-use kits from ReadyCell according to the manufacturer’s protocol. […] The concentration of ZED1227 in the basal and apical media was determined by HPLC. The initial concentration of ZED1227 in the apical medium was 200 μM. Propranolol (20 μM final concentration) was used as a control to validate each ready-to-use plate. Compound stock solutions were prepared in DMSO and further diluted to 1% DMSO using HBSS pH 6.5 to yield the desired working concentration.

[2] = test system: adult patients with well-controlled celiac disease; set-up: method as in PMID 34192430; conditions: cited from earlier work
[3] = Reactivity towards thiols (excess glutathione); assay type: physicochemical; conditions: 160-fold excess GSH, 25 °C, after 48 h
Description: To exclude undesired reactions of ZED1227 with biological thiols, an investigation was performed with the tripeptide glutathione (GSH) as a surrogate. ZED1227 (60 μM) was incubated with a 160-fold excess of glutathione (10,000 μM) in aqueous media [containing 7% (v/v) tetrahydrofuran and 13% (v/v) methanol] at ambient temperature (25 °C). The parent compound and the GSH-adduct formed after 48 h were determined by HPLC (vide supra).

hTG6 = molecular target: T1, hTG6 (Homo sapiens, UniProt O95932); test: Fluorescent transamidation assay (DCC-assay), hTG6; assay type: biochemical
T1 construct: purchased Zedira T021
T1 sequence (O95932 1-706): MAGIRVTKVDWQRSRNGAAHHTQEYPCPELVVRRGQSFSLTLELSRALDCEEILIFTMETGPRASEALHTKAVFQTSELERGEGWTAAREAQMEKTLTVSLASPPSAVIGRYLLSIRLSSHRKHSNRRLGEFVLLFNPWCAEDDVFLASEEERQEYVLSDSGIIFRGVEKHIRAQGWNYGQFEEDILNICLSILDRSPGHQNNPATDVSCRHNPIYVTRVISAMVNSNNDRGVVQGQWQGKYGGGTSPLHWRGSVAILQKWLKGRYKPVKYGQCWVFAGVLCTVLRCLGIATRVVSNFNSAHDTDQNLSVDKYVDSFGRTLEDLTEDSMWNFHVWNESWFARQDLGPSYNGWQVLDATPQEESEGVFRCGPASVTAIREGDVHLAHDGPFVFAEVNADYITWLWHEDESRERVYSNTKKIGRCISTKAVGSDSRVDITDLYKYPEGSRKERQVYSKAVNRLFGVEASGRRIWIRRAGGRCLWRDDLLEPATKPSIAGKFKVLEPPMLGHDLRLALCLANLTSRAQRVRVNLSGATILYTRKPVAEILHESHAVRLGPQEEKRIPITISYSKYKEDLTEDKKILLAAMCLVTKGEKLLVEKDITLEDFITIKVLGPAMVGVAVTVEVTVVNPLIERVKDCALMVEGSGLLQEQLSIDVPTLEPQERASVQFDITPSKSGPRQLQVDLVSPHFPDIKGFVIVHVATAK
Description: Inhibition data were determined using the fluorescent transamidation assay (dansylcadaverine incorporation into glutamine-donor substrate N,N-dimethyl casein, DCC-assay). Briefly, to 15 μL of ZED1227 solution (dissolved and serial diluted in 2% (v/v) DMSO/assay buffer), 285 μL assay buffer [47.5 mM tris(hydroxymethyl)aminomethane, 9.5 mM CaCl2, 9.5 mM glutathione, 2.4% (v/v) glycerol, 190 mM NaCl, pH 8.0] containing dansylcadaverine (15.9 μM), N,N-dimethyl casein (3.8 μM) and the indicated recombinant transglutaminase enzyme [0.95 μg/mL hTG1 (T035), 0.81 μg/mL hTG2 (T022), 0.83 μg/mL hTG6 (T021), all from Zedira] were added, mixed and the kinetic measurement started immediately. […]
Fluorescence emission was continuously monitored for 30 min at λem = 500 nm (λex = 330 nm) and 37 °C using a CLARIOstar fluorescence plate reader (BMG Labtech, Ortenberg, Germany). […] The respective IC50 (and IC90 for TG2) values were calculated by non-linear regression using the MARS software package (BMG Labtech). […]
To facilitate comparability during lead structure optimization and to roughly estimate concentrations needed at the target site, the apparent IC50 values (calculated by four-parameter non-linear fit by MARS software) for irreversible inhibitors are more instructive and are therefore reported. […]

SMILES: CCC(CC)CNC(=O)Cn1cccc(NC(=O)[C@H](CC/C=C/C(=O)OC)NC(=O)c2cncn2C)c1=O [ZED1227, (S,E)-Methyl 7-(1-(2-(2-ethylbutylamino)-2-oxoethyl)-2-oxo-1,2-dihydropyridin-3-ylamino)-6-(1-methyl-1H-imidazole-5-carboxamido)-7-oxohept-2-enoate]
- Papp A→B at 200 μM [1]: < 1 ×10⁻⁶ cm/s
- Effect on gluten-induced duodenal mucosal injury, phase 2a ([2]; 6-week treatment, 10, 50, 100 mg oral, 3 g daily gluten challenge): protect celiac patients from gluten-induced mucosal injury; also recorded: all dose levels attenuated gluten-induced duodenal mucosal injury; also recorded: protected celiac patients from mucosal damage
- Tolerability in gluten challenge study ([2]; celiac patients, gluten challenge): well-tolerated
- Reactivity towards excess glutathione: parent drug compound recovery ([3]; 60 μM compound): 98% parent drug compound recovery (after 48 h)
- Glutathione-adduct formed [3]: 2%
- Selectivity hTG6 versus hTG2 (hTG6; ratio of app. IC50 values): 122 fold
- IC50 (hTG6; recombinant, transamidation assay, read-out: App. IC50 hTG6): 6.44 µM
